The text below walks through data of EP3436024B1, “3-BETA-METHOXY-PREG FOR USE IN THE TREATMENT OF TREATMENT RESISTANT DEPRESSION” (Mapreg, priority 2016, dated 2017).

Experiment [1] has as its target T1, human progesterone receptor(PR) (Homo sapiens, UniProt P06401).
T1 construct: expressed in transfected cells; host or cells: HEK293T
T1 sequence (P06401 1-933): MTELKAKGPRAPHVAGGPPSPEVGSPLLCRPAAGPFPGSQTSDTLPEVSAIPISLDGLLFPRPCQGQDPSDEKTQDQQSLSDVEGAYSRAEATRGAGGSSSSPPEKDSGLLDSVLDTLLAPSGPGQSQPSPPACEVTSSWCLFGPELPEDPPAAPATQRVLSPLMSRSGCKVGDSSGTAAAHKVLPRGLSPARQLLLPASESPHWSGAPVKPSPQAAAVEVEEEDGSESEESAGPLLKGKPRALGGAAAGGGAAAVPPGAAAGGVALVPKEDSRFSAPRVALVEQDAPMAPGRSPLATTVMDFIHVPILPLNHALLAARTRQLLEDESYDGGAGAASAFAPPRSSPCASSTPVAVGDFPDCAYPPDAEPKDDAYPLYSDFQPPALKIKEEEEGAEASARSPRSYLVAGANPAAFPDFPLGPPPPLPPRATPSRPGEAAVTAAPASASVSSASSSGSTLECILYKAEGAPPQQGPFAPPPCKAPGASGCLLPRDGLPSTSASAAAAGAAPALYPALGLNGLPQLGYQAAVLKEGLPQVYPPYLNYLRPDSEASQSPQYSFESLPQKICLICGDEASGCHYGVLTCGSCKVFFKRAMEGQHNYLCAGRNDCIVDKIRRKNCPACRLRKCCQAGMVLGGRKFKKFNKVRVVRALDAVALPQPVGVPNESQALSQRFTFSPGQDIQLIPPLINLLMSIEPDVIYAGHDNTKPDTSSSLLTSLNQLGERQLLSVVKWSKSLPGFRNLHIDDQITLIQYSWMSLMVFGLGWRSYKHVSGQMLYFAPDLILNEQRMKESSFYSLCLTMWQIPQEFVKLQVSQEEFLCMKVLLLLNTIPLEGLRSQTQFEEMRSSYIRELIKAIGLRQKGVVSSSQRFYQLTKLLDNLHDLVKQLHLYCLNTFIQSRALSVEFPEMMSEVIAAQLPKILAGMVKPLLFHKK
The experiment is described as follows: Test of progesterone receptor antagonist activity (MMTV-luciferase transactivation in transfected HEK293T cells, with progesterone 1 nM). As to conditions: 24 hours, progesterone 1 nM plus increasing amounts, Figure 2. It is filed as cell-based. As for the experimental part:
The main experimental setting used is the following: HEK293T cells were transiently transfected, using calcium phosphate precipitation technology, with expression vectors pSG5hPR (which permits expression of human progesterone receptor(PR)), pFC31-luc (contains the luciferase gene under the control of the MMTV promoter, which is in turn activated by binding of a progestin to progesterone receptor) and pcbetagal (which permits expression of betagalactosidase), and cultured during 24 hours with increasing amounts of various compositions: • 1. […] Test of progesterone receptor […] activity: transfected cells were cultured with progesterone (1 nM) and increasing amounts of RU486 (a well-known progesterone receptor antagonist) or 3-methoxy-pregnenolone. With this setting, a compound with progesterone receptor antagonist activity competes with progesterone for the occupation of progesterone receptor and results in a progressive loss of transactivation activity when the amount of this compound is increased compared to progesterone.

Experiment [2] deals with T2, Muscarinic (Cholinergic) M5 (Homo sapiens, UniProt P08912).
T2 construct: expressed in transfected cells; host or cells: CHO cells
The experiment is described as follows: CNS receptor binding assay, M5. As to conditions: MAP4343 10 µM; [^3H] 4-DAMP; Human recombinant (CHO cells); read-out: % Inhibition of control specific binding. The method, then: (§1) MAP4343 has been screened for in vitro affinity to 80 different CNS neurotransmitters receptors using various validated binding assays.
(§2) Table 4. In vitro affinity of MAP4343 (10 µM) for CNS neurotransmitter receptors associated with side effects and/or abuse liability. Data are the average of two individual assays for each receptor and are expressed as % inhibition of the control specific binding of the reference compound. Results showing an inhibition higher than 50% are considered to represent significant effects of the test compound.

The target in the next experiment is Noradrenergic β1 (Homo sapiens, UniProt P08588). Nature of the experiment: CNS receptor binding assay, β1. Conditions: MAP4343 10 µM; [^3H] (-) CGP 12177; Human recombinant (HEK-293 cells); read-out: % Inhibition of control specific binding. The method, then:
as §1, §2

The target in another experiment is Serotoninergic 5-HT2A (Homo sapiens, UniProt P28223). The experiment is described as follows: CNS receptor binding assay, 5-HT2A. Conditions: MAP4343 10 µM; [^3H] ketanserin; Human recombinant (HEK-293 cells); read-out: % Inhibition of control specific binding. As for the experimental part:
as §1, §2

Another experiment deals with Serotoninergic 5-HT5A (Homo sapiens, UniProt P47898). Nature of the experiment: CNS receptor binding assay, 5-HT5A. As to conditions: MAP4343 10 µM; [^3H] LSD; Human recombinant (CHO cells); read-out: % Inhibition of control specific binding. The method, then: as §1, §2
A further experiment has as its target Serotoninergic 5-HT6 (Homo sapiens, UniProt P50406). Nature of the experiment: CNS receptor binding assay, 5-HT6. As to conditions: MAP4343 10 µM; [^3H] LSD; Human recombinant (CHO cells); read-out: % Inhibition of control specific binding. As for the experimental part: as §1, §2
The target of a further experiment is Dopaminergic D1 (Homo sapiens, UniProt P21728). Nature of the experiment: CNS receptor binding assay, D1. Conditions: MAP4343 10 µM; [^3H] SCH 23390; Human recombinant (CHO cells); read-out: % Inhibition of control specific binding. The method, then: as §1, §2
The next experiment deals with Dopaminergic D4.4 (Homo sapiens, UniProt P21917). Nature of the experiment: CNS receptor binding assay, D4.4. Conditions: MAP4343 10 µM; [^3H] spiperone; Human recombinant (CHO cells); read-out: % Inhibition of control specific binding. The method, then:
as §1, §2

The next experiment addresses Dopaminergic D5 (Homo sapiens, UniProt P21918). The experiment is described as follows: CNS receptor binding assay, D5. Conditions: MAP4343 10 µM; [^3H] SCH 23390; Human recombinant (GH4 cells); read-out: % Inhibition of control specific binding. As for the experimental part:
as §1, §2

In another experiment the target is Oppioid δ2 (Homo sapiens, UniProt P41143). Nature of the experiment: CNS receptor binding assay, opioid δ2. As to conditions: MAP4343 10 µM; [^3H] DADLE; Human recombinant (CHO cells); read-out: % Inhibition of control specific binding. The method, then: as §1, §2
Chain of Oppioid δ2 (P41143 whole entry): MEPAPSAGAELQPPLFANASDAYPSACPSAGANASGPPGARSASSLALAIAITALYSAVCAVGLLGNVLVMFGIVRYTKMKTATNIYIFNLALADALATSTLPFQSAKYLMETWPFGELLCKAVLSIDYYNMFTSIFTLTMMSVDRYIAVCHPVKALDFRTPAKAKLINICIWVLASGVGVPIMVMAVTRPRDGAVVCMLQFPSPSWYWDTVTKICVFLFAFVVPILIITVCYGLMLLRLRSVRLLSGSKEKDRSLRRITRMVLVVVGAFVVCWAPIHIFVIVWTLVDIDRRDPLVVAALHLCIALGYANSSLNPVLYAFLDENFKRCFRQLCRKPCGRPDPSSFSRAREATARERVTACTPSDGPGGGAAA

Chain of Serotoninergic 5-HT2A (P28223 whole entry): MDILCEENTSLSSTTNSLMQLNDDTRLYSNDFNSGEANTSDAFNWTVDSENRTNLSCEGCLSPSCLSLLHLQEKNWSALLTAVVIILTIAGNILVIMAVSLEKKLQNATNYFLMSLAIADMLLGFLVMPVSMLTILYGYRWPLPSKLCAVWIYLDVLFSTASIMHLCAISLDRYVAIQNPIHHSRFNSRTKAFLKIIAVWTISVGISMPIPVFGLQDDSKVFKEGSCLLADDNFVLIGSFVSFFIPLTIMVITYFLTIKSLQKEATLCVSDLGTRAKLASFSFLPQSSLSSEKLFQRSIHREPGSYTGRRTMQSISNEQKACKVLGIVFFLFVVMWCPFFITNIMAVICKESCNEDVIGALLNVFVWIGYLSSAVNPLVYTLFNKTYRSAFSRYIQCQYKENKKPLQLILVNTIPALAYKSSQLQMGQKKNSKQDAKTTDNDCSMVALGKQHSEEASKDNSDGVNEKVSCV
Chain of Dopaminergic D4.4 (P21917 whole entry): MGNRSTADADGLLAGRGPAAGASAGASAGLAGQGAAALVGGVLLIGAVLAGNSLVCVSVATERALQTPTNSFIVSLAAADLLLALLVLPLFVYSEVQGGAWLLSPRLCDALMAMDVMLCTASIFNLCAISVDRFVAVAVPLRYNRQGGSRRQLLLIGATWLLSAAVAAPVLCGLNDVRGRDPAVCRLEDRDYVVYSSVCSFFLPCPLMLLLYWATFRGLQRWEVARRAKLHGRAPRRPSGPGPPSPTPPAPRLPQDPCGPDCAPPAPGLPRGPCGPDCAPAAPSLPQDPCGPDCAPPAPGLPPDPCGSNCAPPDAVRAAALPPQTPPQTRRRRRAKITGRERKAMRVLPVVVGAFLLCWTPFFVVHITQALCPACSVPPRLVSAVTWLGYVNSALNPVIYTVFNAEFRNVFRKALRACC
T2 sequence (P08912 whole entry): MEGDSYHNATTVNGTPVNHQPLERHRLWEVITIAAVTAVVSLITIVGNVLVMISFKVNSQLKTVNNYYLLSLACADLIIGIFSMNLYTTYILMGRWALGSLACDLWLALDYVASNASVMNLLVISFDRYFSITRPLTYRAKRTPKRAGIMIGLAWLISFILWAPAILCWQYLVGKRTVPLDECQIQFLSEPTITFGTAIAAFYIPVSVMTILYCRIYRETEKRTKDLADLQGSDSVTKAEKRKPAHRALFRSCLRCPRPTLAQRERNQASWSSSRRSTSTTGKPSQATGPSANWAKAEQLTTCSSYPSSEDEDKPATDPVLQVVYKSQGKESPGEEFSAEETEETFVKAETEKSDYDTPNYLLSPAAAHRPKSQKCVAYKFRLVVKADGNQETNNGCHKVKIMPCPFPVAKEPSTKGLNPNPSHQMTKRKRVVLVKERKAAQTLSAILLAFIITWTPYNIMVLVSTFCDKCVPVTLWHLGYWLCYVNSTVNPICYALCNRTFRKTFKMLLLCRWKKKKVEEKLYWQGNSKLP
Chain of Dopaminergic D5 (P21918 whole entry): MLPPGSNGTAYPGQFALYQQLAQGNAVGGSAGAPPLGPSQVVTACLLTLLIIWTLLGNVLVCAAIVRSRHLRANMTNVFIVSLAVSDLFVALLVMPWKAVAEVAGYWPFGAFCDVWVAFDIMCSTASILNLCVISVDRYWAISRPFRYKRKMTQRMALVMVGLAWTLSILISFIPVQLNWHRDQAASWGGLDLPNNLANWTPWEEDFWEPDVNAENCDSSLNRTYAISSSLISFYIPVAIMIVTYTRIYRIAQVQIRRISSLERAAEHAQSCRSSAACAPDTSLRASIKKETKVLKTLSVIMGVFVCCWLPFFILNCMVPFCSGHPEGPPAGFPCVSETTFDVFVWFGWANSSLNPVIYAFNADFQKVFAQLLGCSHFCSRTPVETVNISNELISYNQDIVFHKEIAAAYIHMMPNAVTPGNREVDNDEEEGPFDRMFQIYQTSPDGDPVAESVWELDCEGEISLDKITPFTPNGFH
Chain of Serotoninergic 5-HT5A (P47898 whole entry): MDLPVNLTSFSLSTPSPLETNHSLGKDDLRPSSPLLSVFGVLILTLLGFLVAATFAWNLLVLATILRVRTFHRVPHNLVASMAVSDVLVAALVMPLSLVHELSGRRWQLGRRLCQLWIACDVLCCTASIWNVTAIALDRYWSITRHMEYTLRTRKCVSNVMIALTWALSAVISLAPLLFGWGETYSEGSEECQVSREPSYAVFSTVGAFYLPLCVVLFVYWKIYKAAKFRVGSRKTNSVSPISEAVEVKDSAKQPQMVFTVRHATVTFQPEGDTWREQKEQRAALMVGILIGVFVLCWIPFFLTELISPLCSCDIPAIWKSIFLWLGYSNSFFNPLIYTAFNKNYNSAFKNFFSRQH
Chain of Serotoninergic 5-HT6 (P50406 whole entry): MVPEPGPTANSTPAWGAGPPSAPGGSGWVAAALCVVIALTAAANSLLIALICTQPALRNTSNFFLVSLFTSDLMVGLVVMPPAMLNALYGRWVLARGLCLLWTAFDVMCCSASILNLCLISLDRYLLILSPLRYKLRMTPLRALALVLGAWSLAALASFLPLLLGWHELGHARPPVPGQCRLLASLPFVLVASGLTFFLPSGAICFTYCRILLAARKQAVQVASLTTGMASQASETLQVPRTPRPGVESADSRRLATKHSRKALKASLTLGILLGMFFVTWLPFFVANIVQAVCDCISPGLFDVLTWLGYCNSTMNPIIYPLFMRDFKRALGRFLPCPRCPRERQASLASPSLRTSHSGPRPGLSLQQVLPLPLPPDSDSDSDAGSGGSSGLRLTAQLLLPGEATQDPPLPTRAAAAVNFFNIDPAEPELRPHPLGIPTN
Chain of Noradrenergic β1 (P08588 whole entry): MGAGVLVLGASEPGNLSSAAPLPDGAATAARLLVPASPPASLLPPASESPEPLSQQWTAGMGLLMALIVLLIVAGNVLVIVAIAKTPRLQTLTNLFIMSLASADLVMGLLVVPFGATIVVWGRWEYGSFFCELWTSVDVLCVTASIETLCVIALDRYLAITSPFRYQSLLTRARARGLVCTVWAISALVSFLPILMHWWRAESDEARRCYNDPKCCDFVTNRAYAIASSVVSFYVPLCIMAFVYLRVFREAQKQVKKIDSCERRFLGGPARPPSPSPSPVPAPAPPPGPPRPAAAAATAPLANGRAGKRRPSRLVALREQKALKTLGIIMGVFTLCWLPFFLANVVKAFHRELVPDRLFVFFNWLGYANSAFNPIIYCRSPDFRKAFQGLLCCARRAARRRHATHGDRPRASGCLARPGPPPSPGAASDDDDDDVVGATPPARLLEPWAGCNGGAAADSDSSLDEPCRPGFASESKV
Chain of Dopaminergic D1 (P21728 whole entry): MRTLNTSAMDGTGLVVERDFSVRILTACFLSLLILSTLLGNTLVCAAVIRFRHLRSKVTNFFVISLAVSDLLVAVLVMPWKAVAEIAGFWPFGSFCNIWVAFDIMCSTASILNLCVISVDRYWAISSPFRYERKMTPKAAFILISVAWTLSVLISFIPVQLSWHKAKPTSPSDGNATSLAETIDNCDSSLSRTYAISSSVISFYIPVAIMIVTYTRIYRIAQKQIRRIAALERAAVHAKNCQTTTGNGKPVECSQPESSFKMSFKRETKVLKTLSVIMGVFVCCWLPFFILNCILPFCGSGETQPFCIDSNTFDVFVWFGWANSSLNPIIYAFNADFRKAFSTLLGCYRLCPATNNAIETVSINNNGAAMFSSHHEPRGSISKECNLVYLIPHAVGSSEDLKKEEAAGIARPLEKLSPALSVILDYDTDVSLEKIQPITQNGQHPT

In the case of `CO[C@H]1CC[C@@]2(C)C(=CC[C@H]3[C@@H]4CC[C@H](C(C)=O)[C@@]4(C)CC[C@@H]32)C1` (stereo in doubt) [MAP4343, 3β-methoxy-pregna-5-ene-20-one], the “progesterone receptor antagonist activity” value in [1] is recorded as “weak progesterone receptor antagonist”. Also, the inhibition at 10 µM in [2] is 12%; on Noradrenergic β1 it was 1%; at Serotoninergic 5-HT2A, 1%; at Serotoninergic 5-HT5A, -5%; at Serotoninergic 5-HT6, 12%; at Dopaminergic D1 it was 2%. The inhibition at 10 µM on Dopaminergic D4.4 was 6%; at Dopaminergic D5 it was -7%; at Oppioid δ2, -3%.
